# Data taken from PubChem BioAssay (NCI).
#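 Each compound was tested at five concentrations against cells in 96-well plates for 48 hours. GI50 is the concentration that inhibits growth by half. At the TGI there is no net growth.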
# Legend:
# Test in all cases: DTP human tumour cell line panel, 48 h
# SN12C renal = system: SN12C renal
# HCT-15 colon = system: HCT-15 colon
# MDA-MB-435 = system: MDA-MB-435
# MDA-MB-231 breast = system: MDA-MB-231 breast
# UACC-62 melanoma = system: UACC-62 melanoma
# SW-620 colon = system: SW-620 colon
# K-562 leukemia = system: K-562 leukemia
# SK-MEL-2 melanoma = system: SK-MEL-2 melanoma
# ACHN renal = system: ACHN renal
# SF-295 CNS = system: SF-295 CNS
SMILES,TGI (SN12C renal) [nM],TGI (HCT-15 colon) [nM],TGI (MDA-MB-435) [nM],TGI (MDA-MB-231 breast) [nM],TGI (UACC-62 melanoma) [nM],TGI (SW-620 colon) [nM],TGI (K-562 leukemia) [nM],TGI (SK-MEL-2 melanoma) [nM],TGI (ACHN renal) [nM],TGI (SF-295 CNS) [nM],GI50 (SN12C renal) [nM],GI50 (HCT-15 colon) [nM],GI50 (MDA-MB-435) [nM],GI50 (MDA-MB-231 breast) [nM],GI50 (UACC-62 melanoma) [nM],GI50 (SW-620 colon) [nM],GI50 (K-562 leukemia) [nM],GI50 (SK-MEL-2 melanoma) [nM],GI50 (ACHN renal) [nM],GI50 (SF-295 CNS) [nM]
Cc1ccc2c(c1)CN(C(=O)CCC(=O)OCc1ccccc1)c1ccc(C)cc1CN2C(=O)CCC(=O)OCc1ccccc1,> 100000,> 100000,> 100000,> 100000,> 100000,> 100000,> 100000,> 100000,> 100000,> 100000,,,,,,,,,,
Cc1ccc(C(=O)Nc2ccc(CN3CCN(C)CC3)c(C(F)(F)F)c2)cc1C#Cc1cnc(N)c2ccccc12,917,849,835,1220,1250,1140,610,1550,631,1690,191,142,214,519,565,410,5,367,133,785
Fc1ccc(-c2nn3ncccc3c2-c2ccnc(Nc3ccc4c(c3)OCCO4)n2)cc1,> 25000,19400,> 21500,6010,9120,> 18900,> 25000,9710,> 25000,18600,4680,3590,4900,1220,3970,5820,2680,4450,1160,6350
COC(=O)C12C3C4C1C1C2C3C41NC(=O)c1csc([C@@H](C[C@H](C(C)C)N(C)C(=O)[C@@H](NC(=O)[C@H]2CCCCN2C)C2CC2)OC(C)=O)n1 (some centres not stated),> 33300,> 33300,9.92,10900,> 33300,> 33300,> 33300,> 33300,> 33300,> 33300,24.2,138,< 3.33,41.4,5.95,7.46,5.69,110,90.3,47.6
COc1cc2c3c(n(CCNCCCNCCn4c5c(c6cc(OC)c(OC)cc6c4=O)C(=O)c4ccccc4-5)c(=O)c2cc1OC)-c1ccccc1C3=O,1590,> 100000,2550,2100,2690,11800,1480,15200,> 56300,2110,< 16.6,54200,1020,178,1200,261,103,1040,693,105
COc1cc2c3c(n(C)c(=O)c2cc1OC)-c1cc2c(cc1/C3=C\CNCCCN)OCO2,1070,17700,5720,2010,1120,3940,,,2070,15900,115,3130,1020,333,214,222,168,2330,271,1080
Nc1ncn(C2CC(O)C(CO)O2)c(=O)n1 (configuration not stated),> 375000,> 302000,> 98300,> 343000,265000,373000,> 332000,232000,> 375000,247000,,,,,,,,,,
CS(=O)(=O)c1cc(=O)c2ccccc2s1,22200,4860,24800,31400,27300,3400,3000,30400,5680,24800,,,,,,,,,,
C/C=C(\C)CC/C=C/CO[Si](C)(C)C(C)(C)C,> 100000,> 100000,> 100000,> 100000,> 100000,> 100000,> 100000,> 100000,> 100000,> 100000,,,,,,,,,,
COC(=O)[C@H](Cc1c[nH]c2ccccc12)NC(=O)[C@@H](OC)[C@@H]1Cc2cc3cc(OC4CC(OC5CC(O)C(O)C(C)O5)C(O)C(C)O4)c(C)c(O)c3c(O)c2C(=O)[C@H]1OC1CC(OC2CC(OC3CC(C)(O)C(O)C(C)O3)C(O)C(C)O2)C(O)C(C)O1 (some centres not stated),7420,> 16500,39.4,603,9.83,,> 16500,14.5,907,3210,6.24,441,7.84,9.75,3.61,8.63,11.8,4.9,47.5,11.2
c1cc2c(ncc3cscc32)s1,> 100000,> 100000,> 100000,> 100000,> 31600,> 100000,> 100000,> 100000,> 100000,> 100000,,,,,,,,,,
CCOC(=O)c1c(C)nc2c(c1N)/C(=C/c1ccc(OC)cc1)C(=O)N2Cc1ccc(F)cc1,750,543,469,760,317,349,1010,729,529,3590,244,127,201,236,160,140,207,238,137,1370
